Source: patent US20240199598A1 (MITOIMMUNE THERAPEUTICS INC., priority 2021, published 2024)

Assays:
[1] = Stability test of Crystalline form III of sulfate (light, dark, 60° C., 40° C./75% RH); type: physicochemical
Method: The chemical and physical stability of Crystalline form III were studied under conditions of light, light-shielding, 60° C. and 40° C./75% RH for 1 month. […] In the light stability test, the crystalline form was stored in a light stability test chamber without a lid and thus exposed to a total illuminance of 1.2 million lux-hr, and a sample vial completely covered with an aluminum foil was regarded as a light-shielded control (Dark control). Appearance by visual observation for 2 weeks, 1 month, 2 months and 3 months was recorded, and purity assessment and XPRD data collection for residual solid contents were performed.

[2] = Persistence of Crystalline form VIII under nitrogen and on exposure to air (XRPD); type: physicochemical
Method: A novel crystalline form was found by heating Crystalline form IV to remove water and maintaining the same for 10 minutes and named Crystalline form VIII.

[3] = Physicochemical stability test of free form and 5 salts (60° C., 40° C./75% humidity, light); settings: for Final purity: HPLC; for Chemical stability (purity change %/1 w), 40° C./75% RH / Chemical stability (purity change %/1 w), 60° C. / Chemical stability (purity change %/1 w), Light stability: summary Table 9; for Sensitivity to heat, humidity and light conditions (in words): 40° C./75% humidity
Method: In the case of a light stability test, the vial was stored in a light stability test chamber while being not closed with a lid, and exposed to a total illuminance of 1.2 million lux-hr. A vial light-shielded with aluminum foil was used as an experimental control (Dark control). For stability assessment, state assessment by visual observation, purity assessment using HPLC, and crystalline form assessment using XRPD were conducted, and results thereof are shown in Table 7. […] In FIGS. 19 to 30, “Light” represents light irradiation condition results.

[4] = Oral administration pharmacokinetic test using mice; settings: mice, oral; for AUClast / Cmax / Tmax / t½: 10 mg/kg; for Pharmacokinetic test, t½: summary Table 9
[5] = Dark control (light-shielded vial)

O=S(=O)(O)O.O=S1(=O)CCN(Cc2cc(NC3CCOCC3)c3[nH]c(-c4ccccc4)cc3c2)CC1
Area (%), impurity peak 3 (RRT 0.67) ([1]; 1.2 million lux-hr): 0.226% | Area (%), impurity peak 10 (RRT 1.24) ([1]; 1.2 million lux-hr): 0.221% | Area (%), impurity peak 12 (RRT 1.42) ([1]; 1.2 million lux-hr): 0.073% | Area of Sulfate (%), peak 7 (RRT 1.00, main peak) ([1]; 1.2 million lux-hr): 99.382% | Area (%), impurity peak 2 (RRT 0.63) ([1]; 40° C./75% RH, 1 M): 0.183% | Area (%), impurity peak 4 (RRT 0.68) ([1]; 40° C./75% RH, 1 M): 0.061% | Area (%), impurity peak 6 (RRT 0.91) ([1]; 40° C./75% RH, 1 M): 0.102% | Area (%), impurity peak 9 (RRT 1.12) ([1]; 40° C./75% RH, 1 M): 0.518% | Area (%), impurity peak 11 (RRT 1.32) ([1]; 40° C./75% RH, 1 M): 0.149% | Area of Sulfate (%), peak 7 (RRT 1.00, main peak) ([1]; 40° C./75% RH, 1 M): 98.711% | Area (%), impurity peak 1 (RRT 0.50) ([1]; 40° C./75% RH, 2 W): 0.069% | Area (%), impurity peak 3 (RRT 0.67) ([1]; 40° C./75% RH, 2 W): 0.226% | Area (%), impurity peak 10 (RRT 1.24) ([1]; 40° C./75% RH, 2 W): 0.321% | Area (%), impurity peak 12 (RRT 1.42) ([1]; 40° C./75% RH, 2 W): 0.084% | Area of Sulfate (%), peak 7 (RRT 1.00, main peak) ([1]; 40° C./75% RH, 2 W): 98.769% | Area (%), impurity peak 2 (RRT 0.63) ([1]; 60° C., 1 M): 0.168% | Area (%), impurity peak 4 (RRT 0.68) ([1]; 60° C., 1 M): 0.056% | Area (%), impurity peak 9 (RRT 1.12) ([1]; 60° C., 1 M): 0.325% | Area (%), impurity peak 11 (RRT 1.32) ([1]; 60° C., 1 M): 0.088% | Area of Sulfate (%), peak 7 (RRT 1.00, main peak) ([1]; 60° C., 1 M): 99.247% | Area (%), impurity peak 3 (RRT 0.67) ([1]; 60° C., 2 W): 0.231% | Area (%), impurity peak 5 (RRT 0.82) ([1]; 60° C., 2 W): 0.052% | Area (%), impurity peak 8 (RRT 1.11) ([1]; 60° C., 2 W): 0.114% | Area (%), impurity peak 10 (RRT 1.24) ([1]; 60° C., 2 W): 0.211% | Area (%), impurity peak 12 (RRT 1.42) ([1]; 60° C., 2 W): 0.054% | Area of Sulfate (%), peak 7 (RRT 1.00, main peak) ([1]; 60° C., 2 W): 99.237% | Area (%), impurity peak 3 (RRT 0.67) ([1]; Dark control): 0.209% | Area (%), impurity peak 8 (RRT 1.11) ([1]; Dark control): 0.069% | Area (%), impurity peak 12 (RRT 1.42) ([1]; Dark control): 0.078% | Area of Sulfate (%), peak 7 (RRT 1.00, main peak) ([1]; Dark control): 99.326% | Area (%), impurity peak 3 (RRT 0.67) ([1]; Initial): 0.204% | Area (%), impurity peak 8 (RRT 1.11) ([1]; Initial): 0.069% | Area (%), impurity peak 10 (RRT 1.24) ([1]; Initial): 0.215% | Area (%), impurity peak 12 (RRT 1.42) ([1]; Initial): 0.08% | Area of Sulfate (%), peak 7 (RRT 1.00, main peak) ([1]; Initial): 99.319%

O=S1(=O)CCN(Cc2cc(NC3CCOCC3)c3[nH]c(-c4ccccc4)cc3c2)CC1 [Crystalline form VIII]
Time until the crystalline form disappeared ([2]; exposed to air, changes to Crystalline form IV): ≤ 1 h | Persistence of the crystalline form (in words) ([2]; nitrogen filling protection after cooling to 25° C.): maintained upon nitrogen filling protection after cooling to 25 °C

Cl.O=S1(=O)CCN(Cc2cc(NC3CCOCC3)c3[nH]c(-c4ccccc4)cc3c2)CC1 [Hydrochloride]
Assay ([3]; 1.2 million lux-hr): 108.65% | Purity change ([3]; 1.2 million lux-hr): 0% | XRPD patterns ([3]; 1.2 million lux-hr): Pattern 1-I | Final purity ([3]; 1.2 million lux-hr): 99.95% | Appearance ([3]; 40° C./75% RH, 1 w): White powder | Assay ([3]; 40° C./75% RH, 1 w): 109.18% | Purity change ([3]; 40° C./75% RH, 1 w): −0.55% | XRPD patterns ([3]; 40° C./75% RH, 1 w): Pattern 1-I | Final purity ([3]; 40° C./75% RH, 1 w): 99.40% | Chemical stability (purity change %/1 w), 40° C./75% RH ([3]; 40° C./75% RH, 1 w): −0.05% | Appearance ([3]; 60° C., 1 w): White powder | Assay ([3]; 60° C., 1 w): 110.29% | Purity change ([3]; 60° C., 1 w): +0.05% | XRPD patterns ([3]; 60° C., 1 w): Pattern 1-I | Final purity ([3]; 60° C., 1 w): 100.0% | Chemical stability (purity change %/1 w), 60° C. ([3]; 60° C., 1 w): 0.18% | Sensitivity to heat, humidity and light conditions (in words) ([3]; 60° C., 1.2 million lux-hr): sensitive under a humidity condition | Assay ([3]; Dark control): 108.99% | Purity change ([3]; Dark control): +0.05% | XRPD patterns ([3]; Dark control): Pattern 1-I | Appearance [3, 5]: White powder | Final purity ([3]; Dark control): 100.0% | Chemical stability (purity change %/1 w), Light stability [3]: 0% | AUClast [4]: 12261.43 ng·h/mL | Cmax [4]: 2381.1 ng/mL | Tmax [4]: 2 h | t½ [4]: 3.0 h | Pharmacokinetic test, t½ [4]: 3 h

O=C(O)/C=C\C(=O)O.O=S1(=O)CCN(Cc2cc(NC3CCOCC3)c3[nH]c(-c4ccccc4)cc3c2)CC1 [Maleate]
Assay ([3]; 1.2 million lux-hr): 109.56% | Purity change ([3]; 1.2 million lux-hr): −0.17% | XRPD patterns ([3]; 1.2 million lux-hr): Pattern 7-I | Final purity ([3]; 1.2 million lux-hr): 96.86% | Appearance ([3]; 40° C./75% RH, 1 w): Yellow powder | Assay ([3]; 40° C./75% RH, 1 w): 108.85% | Purity change ([3]; 40° C./75% RH, 1 w): −0.77% | XRPD patterns ([3]; 40° C./75% RH, 1 w): Pattern 7-I | Final purity ([3]; 40° C./75% RH, 1 w): 96.26% | Chemical stability (purity change %/1 w), 40° C./75% RH ([3]; 40° C./75% RH, 1 w): −0.77% | Appearance ([3]; 60° C., 1 w): Yellow powder | Assay ([3]; 60° C., 1 w): 110.00% | Purity change ([3]; 60° C., 1 w): −0.44% | XRPD patterns ([3]; 60° C., 1 w): Pattern 7-I | Final purity ([3]; 60° C., 1 w): 96.59% | Chemical stability (purity change %/1 w), 60° C. ([3]; 60° C., 1 w): −0.44% | Sensitivity to heat, humidity and light conditions (in words) ([3]; 60° C., 1.2 million lux-hr): sensitive under all conditions including heat, humidity and light irradiation conditions | Assay ([3]; Dark control): 109.66% | Purity change ([3]; Dark control): +0.01% | XRPD patterns ([3]; Dark control): Pattern 7-I | Appearance [3, 5]: Yellow powder | Final purity ([3]; Dark control): 97.04% | Chemical stability (purity change %/1 w), Light stability [3]: −0.17% | AUClast [4]: 15780.45 ng·h/mL | Cmax [4]: 3115.9 ng/mL | Tmax [4]: 0.5 h | t½ [4]: 2.8 h | Pharmacokinetic test, t½ [4]: 3 h

CS(=O)(=O)O.O=S1(=O)CCN(Cc2cc(NC3CCOCC3)c3[nH]c(-c4ccccc4)cc3c2)CC1 [Mesylate]
Assay ([3]; 1.2 million lux-hr): 102.69% | Purity change ([3]; 1.2 million lux-hr): −0.82% | XRPD patterns ([3]; 1.2 million lux-hr): Pattern 4-I | Final purity ([3]; 1.2 million lux-hr): 99.18% | Purity decrease ([3]; 40° C. RH for 1 week): ≥ 3% | Appearance ([3]; 40° C./75% RH, 1 w): White powder | Assay ([3]; 40° C./75% RH, 1 w): 101.35% | Purity change ([3]; 40° C./75% RH, 1 w): −3.29% | XRPD patterns ([3]; 40° C./75% RH, 1 w): Pattern 4-I | Final purity ([3]; 40° C./75% RH, 1 w): 96.71% | Chemical stability (purity change %/1 w), 40° C./75% RH ([3]; 40° C./75% RH, 1 w): −3.29% | Appearance ([3]; 60° C., 1 w): White powder | Assay ([3]; 60° C., 1 w): 107.36% | Purity change ([3]; 60° C., 1 w): 0% | XRPD patterns ([3]; 60° C., 1 w): Pattern 4-I | Final purity ([3]; 60° C., 1 w): 100.0% | Chemical stability (purity change %/1 w), 60° C. ([3]; 60° C., 1 w): 0% | Sensitivity to heat, humidity and light conditions (in words) ([3]; 60° C., 1.2 million lux-hr): sensitive under humidity and light conditions | Assay ([3]; Dark control): 103.03% | Purity change ([3]; Dark control): 0% | XRPD patterns ([3]; Dark control): Pattern 4-I | Appearance [3, 5]: White powder | Final purity ([3]; Dark control): 100.0% | Chemical stability (purity change %/1 w), Light stability [3]: −0.82% | AUClast [4]: 10119.7 ng·h/mL | Cmax [4]: 2595.2 ng/mL | Tmax [4]: 0.5 h | t½ [4]: 2.3 h | Pharmacokinetic test, t½ [4]: 2 h

Cc1ccc(S(=O)(=O)O)cc1.O=S1(=O)CCN(Cc2cc(NC3CCOCC3)c3[nH]c(-c4ccccc4)cc3c2)CC1 [Tosylate]
Assay ([3]; 1.2 million lux-hr): 105.78% | Purity change ([3]; 1.2 million lux-hr): −0.24% | XRPD patterns ([3]; 1.2 million lux-hr): Pattern 6-I | Final purity ([3]; 1.2 million lux-hr): 98.77% | Appearance ([3]; 40° C./75% RH, 1 w): White powder | Assay ([3]; 40° C./75% RH, 1 w): 107.73% | Purity change ([3]; 40° C./75% RH, 1 w): −0.01% | XRPD patterns ([3]; 40° C./75% RH, 1 w): Pattern 6-I | Final purity ([3]; 40° C./75% RH, 1 w): 99.00% | Chemical stability (purity change %/1 w), 40° C./75% RH ([3]; 40° C./75% RH, 1 w): −0.01% | Appearance ([3]; 60° C., 1 w): White powder | Assay ([3]; 60° C., 1 w): 108.33% | Purity change ([3]; 60° C., 1 w): −0.05% | XRPD patterns ([3]; 60° C., 1 w): Pattern 6-I | Final purity ([3]; 60° C., 1 w): 98.96% | Chemical stability (purity change %/1 w), 60° C. ([3]; 60° C., 1 w): −0.05% | Sensitivity to heat, humidity and light conditions (in words) ([3]; 60° C., 1.2 million lux-hr): sensitive to light | Assay ([3]; Dark control): 108.98% | Purity change ([3]; Dark control): −0.03% | XRPD patterns ([3]; Dark control): Pattern 6-I | Appearance [3, 5]: White powder | Final purity ([3]; Dark control): 98.98% | Chemical stability (purity change %/1 w), Light stability [3]: −0.24% | AUClast [4]: 18850.98 ng·h/mL | Cmax [4]: 3151.3 ng/mL | Tmax [4]: 0.5 h | t½ [4]: 2.8 h | Pharmacokinetic test, t½ [4]: 3 h
